Data on three molecules can be found in US9174917B2, “Bexarotene analogs” (Arizona Board of Regents on Behalf of Arizona State …, priority 2010, dated 2015).

One test concerns RXR. The settings on record: from the literature; cited from earlier work.
Another test relates to CTCL cells. In words: DNA microarray gene expression analysis in CTCL cells. In kind it is cell-based, human. The settings on record: 4-hour treatment, versus ethanol vehicle control. From the text:
DNA microarray analysis is a method to assess genome-wide gene expression by simultaneously quantitating mRNA levels from all or a subset of genes in a genome and comparing these levels between a control and an experimental sample. These changes are compared, such as in as wild type versus mutant strains or cells with no treatment compared to cells treated with a reagent. RNA is extracted from the two cell types, and either converted to cDNA or amplified to cRNA, and then this message pool is used to assess gene expression changes. Both pools of labeled message are hybridized to a DNA microarray (or “gene chip”). These microarrays have all genes in the genome spotted onto the array in a precise fashion, such that this chip experiment becomes a genome-wide northern blot, assaying the message levels of all genes in the cells. Since the control and the experimental are hybridized to the same chip, there can be direct comparisons performed between the starting mRNA levels of the two, looking for genes that are under or over expressed in the experimental as compared to the control, analyzing the intensity of the hybridization of both cDNA pools.
The total RNA will be isolated from human CTCL cells, either untreated or treated with bexarotene or the appropriate analog. The RNA quality and integrity will be tested before hybridization using denaturing gel electrophoresis as well as reverse transcription followed by PCR. Once high quality RNA is isolated, labeled cRNA can be generated with the Genisphere 350 kit. Microarrays are readily available for such tests, for example, human microarrays can be obtained from Washington University St. Louis (Human HEEBO microarrays), or alternatively from the Toronto Microarray Centre (Toronto, Canada).
CTCL cells were treated bexarotene or ethanol vehicle control and total RNA was extracted after 4-hour treatment using the BioRad Aurum Total RNA Mini kit. Total RNA extracted was utilized to produce cRNA using a Genisphere 350 kit and was used to hybridize human HEEBO microarray slides obtained from GCAT (Genome Consortium for Active Teaching). The Genisphere 350 kit high sensitivity protocol was used and representative results were obtained (data not shown). […] Likewise, there was a 2.9-fold downregulation of REEP, a gene that occurs in a deleted segment of human 5q31 in malignant myeloid diseases; and 2.6-fold downregulation of RAC GAP1, a GTPase activating protein of RAC, a protein required for malignant cell movement106; and 2.5-fold downregulation of karyopherin alpha 1 (importing alpha 5), a protein required for STAT1 import into the nucleus. […]

As for `Cc1cc2c(cc1C1(c3ccc(C(=O)O)cc3)CC1)C(C)(C)CCC2(C)C` [Compound 105], the “reported / documented RXR activity” value in the test on RXR was “potent, RXR-selective agonists”.
Consider `CC(/C=C/C1(c2cc3c(cc2C)C(C)(C)CCC3(C)C)CC1)=C\C(=O)O` [Compound 106], for which the “reported / documented RXR activity” value in the test with RXR is recorded as “potent, RXR-selective agonists”.
For `C=C(c1ccc(C(=O)O)cc1)c1cc2c(cc1C)C(C)(C)CCC2(C)C` [bexarotene], in the test with CTCL cells, the “downregulation of RAC GAP1” value is listed as 2.6 fold, the “downregulation of REEP” value was determined as 2.9 fold, the “downregulation of karyopherin alpha 1 (importing alpha 5)” value worked out at 2.5 fold and the “upregulation of death associated protein kinase 3” value was determined as 4.3 fold. In addition, in the test with CTCL cells, the “upregulation of endothelin converting enzyme 1” value worked out at 4.6 fold and the upregulation of urocortin is on record as 3.5 fold.
